Experimental data: US8791132B2, “Compounds and methods for treatment of hypertension” (Medivation Technologies, Inc., priority 2011, dated 2014)
Read-outs that look alike come from different tables or passages of the source.

Tests used:
[1] = target: T1, rat adrenergic α1B receptor (Rattus norvegicus, UniProt P15823); assay: Radioligand binding, adrenergic α1B ([3H]Prazosin); conditions: [3H]Prazosin; for Percentage inhibition of ligand binding, Adrenergic α1B (0.1 μM) / Percentage inhibition of ligand binding, Adrenergic α1B: 0.1 µM
T1 construct: rat adrenergic α1B receptor obtained from Wistar Rat liver; from tissue; host or cells: Wistar rat liver
T1 sequence (P15823 1-515): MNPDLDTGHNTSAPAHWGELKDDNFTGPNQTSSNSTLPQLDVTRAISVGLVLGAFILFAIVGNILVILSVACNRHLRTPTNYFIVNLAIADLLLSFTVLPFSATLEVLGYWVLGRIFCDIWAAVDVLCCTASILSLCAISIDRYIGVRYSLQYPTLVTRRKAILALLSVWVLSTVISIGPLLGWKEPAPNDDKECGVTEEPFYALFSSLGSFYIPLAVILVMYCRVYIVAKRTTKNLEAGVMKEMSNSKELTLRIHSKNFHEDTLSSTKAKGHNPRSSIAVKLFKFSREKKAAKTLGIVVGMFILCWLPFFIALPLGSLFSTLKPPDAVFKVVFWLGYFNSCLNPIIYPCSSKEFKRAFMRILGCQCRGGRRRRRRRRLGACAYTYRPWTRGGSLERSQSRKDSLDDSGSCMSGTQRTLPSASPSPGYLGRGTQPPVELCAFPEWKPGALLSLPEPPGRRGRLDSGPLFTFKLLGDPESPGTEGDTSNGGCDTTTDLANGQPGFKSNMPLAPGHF
In short: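 Incubation ran 60 min at 25 °C in Tris-HCl buffer (50 mM, pH 7.4, 0.5 mM EDTA) with Wistar rat liver α1B receptor. 10 μM phentolamine set non-specific binding.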

[2] = target: T2, human recombinant adrenergic α2A receptor (Homo sapiens, UniProt P08913); assay: Radioligand binding, adrenergic α2A ([3H]MK-912); conditions: [3H]MK-912
T2 construct: expressed in transfected cells; host or cells: insect Sf9 cells
T2 sequence (P08913 1-465): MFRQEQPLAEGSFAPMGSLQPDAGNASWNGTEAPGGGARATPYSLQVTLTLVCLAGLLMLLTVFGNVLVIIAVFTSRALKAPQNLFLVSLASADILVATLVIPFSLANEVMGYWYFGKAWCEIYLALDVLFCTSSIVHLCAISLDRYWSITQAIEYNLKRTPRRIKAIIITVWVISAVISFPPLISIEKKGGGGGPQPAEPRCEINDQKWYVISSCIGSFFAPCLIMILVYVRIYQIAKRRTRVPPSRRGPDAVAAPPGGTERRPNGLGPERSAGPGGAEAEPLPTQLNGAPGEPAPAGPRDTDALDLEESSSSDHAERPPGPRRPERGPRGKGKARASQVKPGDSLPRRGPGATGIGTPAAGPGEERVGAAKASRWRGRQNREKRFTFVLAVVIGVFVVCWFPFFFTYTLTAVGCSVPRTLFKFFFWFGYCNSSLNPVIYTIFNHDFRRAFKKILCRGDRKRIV
In short: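 Receptor expressed in insect Sf9 cells, assayed in 50 mM Tris-HCl pH 7.4 with 12.5 mM MgCl2 and 2 mM EDTA. Compounds incubated with 1 nM [3H]MK-912 for 60 min at 25 °C; nonspecific binding defined with 10 μM WB-4101. Filter-bound radioactivity counted; values are percent inhibition of specific binding.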

[3] = target: T3, human recombinant adrenergic α2B receptor (Homo sapiens, UniProt P18089); assay: Radioligand binding, adrenergic α2B ([3H]Rauwolscine); conditions: [3H]Rauwolscine; for Percentage inhibition of ligand binding, Adrenergic α2B (0.03 μM) / Percentage inhibition of ligand binding, Adrenergic α2B: 0.03 µM
T3 construct: expressed in transfected cells; host or cells: CHO-K1
T3 sequence (P18089 1-450): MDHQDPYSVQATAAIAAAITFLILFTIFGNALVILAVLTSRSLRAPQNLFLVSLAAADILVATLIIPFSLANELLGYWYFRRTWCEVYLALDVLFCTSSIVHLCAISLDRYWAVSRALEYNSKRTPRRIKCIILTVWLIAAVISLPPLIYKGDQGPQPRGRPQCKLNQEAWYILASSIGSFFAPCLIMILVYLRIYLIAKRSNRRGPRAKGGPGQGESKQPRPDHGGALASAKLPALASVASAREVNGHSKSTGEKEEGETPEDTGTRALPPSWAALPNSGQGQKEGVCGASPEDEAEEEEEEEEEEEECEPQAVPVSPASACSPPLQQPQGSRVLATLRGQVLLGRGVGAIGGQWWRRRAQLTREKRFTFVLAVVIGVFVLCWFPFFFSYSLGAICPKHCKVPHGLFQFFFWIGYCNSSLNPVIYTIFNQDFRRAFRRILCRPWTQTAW
In short: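 Readout: percent inhibition of specific [3H]Rauwolscine binding, measured by filtration and counting. Conditions: CHO-K1 cell-expressed receptor, 2.5 nM radioligand, 60 min, 25° C, Tris-HCl pH 7.4 buffer with MgCl2, EDTA, BSA. Non-specific binding: 10 μM Prazosin.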

[4] = compound at 0.1 μM, repeat datapoints each shown
[5] = compound at 0.1 μM, repeat datapoints each shown, 0.1 µM
[6] = compound at 0.03 μM, repeat datapoints each shown
[7] = read-out: Percentage inhibition of ligand binding, Adrenergic α1B (0.1 μM), compound at 0.1 μM, repeat datapoints each shown
[8] = read-out: Percentage inhibition of ligand binding, Adrenergic α2A (0.1 μM), compound at 0.1 μM, repeat datapoints each shown
[9] = read-out: Percentage inhibition of ligand binding, Adrenergic α2B (0.03 μM), compound at 0.03 μM, repeat datapoints each shown
[10] = compound at 0.1 μM, repeat assays, each datapoint shown
[11] = compound at 0.1 μM, repeat assays, each datapoint shown, 0.1 µM
[12] = compound at 0.03 μM, repeat assays, each datapoint shown
[13] = compound at 0.1 μM, repeat assays, each datapoint shown, read-out: Percentage inhibition of ligand binding, Adrenergic α1B
[14] = compound at 0.1 μM, repeat assays, each datapoint shown, read-out: Percentage inhibition of ligand binding, Adrenergic α2A
[15] = compound at 0.03 μM, repeat assays, each datapoint shown, read-out: Percentage inhibition of ligand binding, Adrenergic α2B

With CC(O)(Cn1c2c(c3cc(Cl)cnc31)C1CCCN1CC2)c1cccnc1 (single isomer, unassigned) [IV-210d] the “Percentage inhibition of ligand binding, Adrenergic α1B (0.1 μM)” value [1, 4] was 19%, the “Percentage inhibition of ligand binding, Adrenergic α2A (0.1 μM)” value [2, 5] was 13% and the “Percentage inhibition of ligand binding, Adrenergic α2B (0.03 μM)” value (“Percentage inhibition … (0.03 μM)” for short) [3, 6] was 87%.

In the case of Cc1ccc2c(c1)c1c(n2CC(C)(OCC(=O)O)c2cccnc2)CCN(C)C1 (single isomer, unassigned) [V-14a, 2-((1-(2,8-dimethyl-3,4-dihydro-1H-pyrido[4,3-b]indol-5(2H)-yl)-2-(pyridin-3-yl)propan-2-yl)oxy)acetic acid], the “Percentage inhibition of ligand binding, Adrenergic α1B (0.1 μM)” value [1, 4] is reported as 0%, the “Percentage inhibition of ligand binding, Adrenergic α2A (0.1 μM)” value [2, 5] is reported as 18% and the “Percentage inhibition … (0.03 μM)” value [3, 6] is reported as 7%.

In the case of Cc1ccc2c(c1)c1c(n2CC(C)(OCC(=O)O)c2cccnc2)CCN(C)C1 (single isomer, unassigned) [V-14b, 2-((1-(2,8-dimethyl-3,4-dihydro-1H-pyrido[4,3-b]indol-5(2H)-yl)-2-(pyridin-3-yl)propan-2-yl)oxy)acetic acid], the “Percentage inhibition of ligand binding, Adrenergic α1B (0.1 μM)” value [1, 4] is reported as 2%, the “Percentage inhibition of ligand binding, Adrenergic α2A (0.1 μM)” value [2, 5] is reported as 3% and the “Percentage inhibition … (0.03 μM)” value [3, 6] is reported as 0%.

Cc1ccc2c(c1)c1c(n2CC(OC(=O)CCC(=O)O)c2ccncc2)CCN2CCCC12 (single isomer, unassigned) [V-18a, 4-(2-(10-methyl-2,3,5,6-tetrahydro-1H-indolizino[7,8-b]indol-7(11cH)-yl)-1-(pyridin-4-yl)ethoxy)-4-oxobutanoic acid] was tested, and the inhibition at 0.1 µM [1, 7] was 78%, the “Percentage inhibition of ligand binding, Adrenergic α2A (0.1 μM)” value [2, 5] was 13% and the “Percentage inhibition … (0.03 μM)” value [3, 6] was 57%.

For Cc1ccc2c(c1)c1c(n2CC(OC(=O)CCC(=O)O)c2ccncc2)CCN2CCCC12 (single isomer, unassigned) [V-18b, 4-(2-(10-methyl-2,3,5,6-tetrahydro-1H-indolizino[7,8-b]indol-7(11cH)-yl)-1-(pyridin-4-yl)ethoxy)-4-oxobutanoic acid], the “Percentage inhibition of ligand binding, Adrenergic α1B (0.1 μM)” value [1, 4] was 95%, the “Percentage inhibition of ligand binding, Adrenergic α2A (0.1 μM)” value [2, 5] was 57% and the “Percentage inhibition … (0.03 μM)” value [3, 6] was 98%.

For Cc1ccc2c(c1)c1c(n2CC(N=[N+]=[N-])c2ccc(F)cc2F)CCN(C)CC1 (single isomer, unassigned) [V-21a, 6-(2-azido-2-(2,4-difluorophenyl)ethyl)-3,9-dimethyl-1,2,3,4,5,6-hexahydroazepino[4,5-b]indole], the “Percentage inhibition of ligand binding, Adrenergic α1B (0.1 μM)” value [1, 4] was 68%, the inhibition at 0.1 µM [2, 8] was 62% and the inhibition at 0.03 µM [3, 9] was 98%.

Cc1ccc2c(c1)c1c(n2CC(N=[N+]=[N-])c2ccc(F)cc2F)CCN(C)CC1 (single isomer, unassigned) [V-21b, 6-(2-azido-2-(2,4-difluorophenyl)ethyl)-3,9-dimethyl-1,2,3,4,5,6-hexahydroazepino[4,5-b]indole] was tested, and the “Percentage inhibition of ligand binding, Adrenergic α1B (0.1 μM)” value [1, 4] was 34%, the “Percentage inhibition of ligand binding, Adrenergic α2A (0.1 μM)” value [2, 5] was 43% and the “Percentage inhibition … (0.03 μM)” value [3, 6] was 93%.

Cc1ccc2c(c1)c1c(n2CC(O)c2ccncc2)CN(C)CC1 (stereo not drawn) [8a] was tested, and the “Percentage inhibition of ligand binding, Adrenergic α1B” value [1, 10] was 39%, the “Percentage inhibition of ligand binding, Adrenergic α2A” value [2, 11] was 15% and the “Percentage inhibition of ligand binding, Adrenergic α2B” value [3, 12] was 22%.

Cc1ccc2c(c1)c1c(n2CC(C)(O)c2cccnc2)CN(C)CC1 (stereo not drawn) [14b, 1-(2,6-dimethyl-1,2,3,4-tetrahydro-β-carbolin-9-yl)-2-pyridin-3-yl-propan-2-ol] gave an inhibition at 0.1 µM [1, 13] of 25%, an inhibition at 0.1 µM [2, 14] of -6% and an inhibition at 0.03 µM [3, 15] of 14%.

In the case of Cc1ccc2c(c1)c1c(n2CC(C)(O)c2ccc(C)nc2)CCN(C)C1 (stereo not drawn) [29b], the “Percentage inhibition of ligand binding, Adrenergic α1B” value [1, 10] is reported as 14%, the “Percentage inhibition of ligand binding, Adrenergic α2A” value [2, 10] is reported as 10% and the inhibition at 0.03 µM [3, 15] is reported as 46%.

For CN1CCc2c(c3cc(Cl)ccc3n2CC(C)(O)c2cccnc2)C1 (stereo not drawn) [31b], the inhibition at 0.1 µM [1, 13] was 3%, the inhibition at 0.1 µM [2, 14] was 14% and the inhibition at 0.03 µM [3, 15] was 36%.

With CCC(O)(Cn1c2c(c3cc(C)ccc31)CN(C)CC2)c1ccncc1 (stereo not drawn) [35a] the inhibition at 0.1 µM [1, 13] was 9%, the inhibition at 0.1 µM [2, 14] was 20% and the inhibition at 0.1 µM ([3]; compound at 0.1 μM, repeat assays, each datapoint shown, read-out: Percentage inhibition of ligand binding, Adrenergic α2B) was 62%.

Cc1ccc2c(c1)c1c(n2CC(O)c2cc[n+]([O-])cc2)CCN(C)C1 (stereo not drawn) [69a] showed an inhibition at 0.1 µM [1, 13] of 4%, an inhibition at 0.1 µM [2, 14] of 11% and an inhibition at 0.03 µM [3, 15] of 10%.

With Cc1ccc2c(c1)c1c(n2CC(O)c2cc[n+]([O-])cc2)CCN(C)C1 (stereo not drawn) [69b] the “Percentage inhibition of ligand binding, Adrenergic α1B” value [1, 10] was 8%, the “Percentage inhibition of ligand binding, Adrenergic α2A” value [2, 11] was 7% and the “Percentage inhibition of ligand binding, Adrenergic α2B” value [3, 12] was 19%.

Cc1ccc2c(c1)c1c(n2C(C)C(O)c2ccncc2)CCN(C)C1 (stereo not drawn) [127b] gave an inhibition at 0.1 µM [1, 7] of 13%, an inhibition at 0.1 µM [2, 8] of 4% and an inhibition at 0.03 µM [3, 9] of 1%.

Work on Cc1ccc2c(c1)c1c(n2CC(C)(O)c2cccnc2)CNCC1 (stereo not drawn) [128b] yielded an inhibition at 0.1 µM [1, 7] of 45%, an inhibition at 0.1 µM [2, 8] of 22% and an inhibition at 0.03 µM [3, 9] of 54%.

Cc1ccc2c(c1)c1c(n2CC(O)c2cnn(C)c2)CCN(C)C1 (stereo not drawn) [131a, 2-(1,2,3,4-tetrahydro-2,8-dimethylpyrido[4,3-b]indol-5-yl)-1-(1-methyl-1H-pyrazol-4-yl)ethanol] showed an inhibition at 0.1 µM [1, 7] of 24%, an inhibition at 0.1 µM [2, 8] of 10% and an inhibition at 0.03 µM [3, 9] of 30%.

Cc1ccc2c(c1)c1c(n2CC(O)c2ccncc2C)CCN(C)C1 (stereo not drawn) [133a] was tested, and the inhibition at 0.1 µM [1, 7] was 57%, the inhibition at 0.1 µM [2, 8] was 13% and the inhibition at 0.03 µM [3, 9] was 52%.

In the case of Cc1cnc2c(c1)c1c(n2CCc2cccnc2)CCN2CCCC12 (stereo not drawn) [134a, 9-methyl-6-(2-pyridin-3-yl-ethyl)-2,3,4,5,6,10c-hexahydro-1H-3a,6,7-triaza-cyclopenta[c]fluorene], the inhibition at 0.1 µM [1, 7] is reported as 27%, the inhibition at 0.1 µM [2, 8] is reported as 4% and the inhibition at 0.03 µM [3, 9] is reported as 42%.

For Cc1ccc2c(c1)c1c(n2CC(O)c2ccc(C(N)=O)nc2)CCN(C)C1 (stereo not drawn) [144a, 5-[2-(2,8-dimethyl-1,2,3,4-tetrahydro-pyrido[4,3-b]indol-5-yl)-1-hydroxy-ethyl]-pyridine-2-carboxylic acid amide], the inhibition at 0.1 µM [1, 7] was 57%, the inhibition at 0.1 µM [2, 8] was 1% and the inhibition at 0.03 µM [3, 9] was 40%.

For Cc1ccc(C(O)Cn2c3c(c4cc(C)ccc42)CN(C)CC3)cc1 (stereo not drawn) [183a, 2-(1,2,3,4-tetrahydro-2,8-dimethylpyrido[4,3-b]indol-5-yl)-1-p-tolylethanol], the inhibition at 0.1 µM [1, 7] was 77%, the inhibition at 0.1 µM [2, 8] was 56% and the inhibition at 0.03 µM [3, 9] was 82%.
